Measurements as given in publication PMC2854649 (Biochemical and biophysical research communications, 2009).
Like-named read-outs stand apart in the source and are kept apart here.

How the values were obtained:
CD1 mice = type: in vivo, mouse; conditions: for Percent Surviving: CD1 mice, survival recorded for 24 hrs
CD3+ human PBMCs = experiment: Radiation-induced apoptosis; type: cell-based; conditions: CD3+ human PBMCs exposed to 20 Gy radiation, Figure 1
C57Bl/6J mice = type: in vivo, mouse; conditions: 2 mg in 200 μL saline via tail-vein injection, N=6
[1] = system: primary human lymphocytes (PBMCs); experiment: Cellular uptake and subcellular distribution of FITC-labeled peptides; type: cell-based; conditions: 5 μM fluorescein-labeled peptide, 1 h, RPMI with 10% FBS or serum-free PBS
male C57Bl/6 mice = experiment: Post-exposure treatment after lethal total body irradiation; type: in vivo, mouse; conditions: 1 mg dose, data not shown

(d) ^1-Ac-RKKRR-Orn-RRR-COOH [TAT, reference compound]
Percent Surviving (CD1 mice; 2 mg i.p.): 100% | Percent Surviving (CD1 mice; 5 mg i.p.): 0%

(d) ^1-Ac-RKKRR-Orn-RRR-β-A-(l) ^1-SNRELVVDFLSDKLSQKGDS-COOH [TAT-BH4i]
Effect on radiation-induced apoptosis, in words (CD3+ human PBMCs): Neither TAT-BH4i nor NLS-BH4i had any appreciable effect

(d) ^1-Ac-RKKRR-Orn-RRR-β-A-(l) ^1-SNRELVVDFLSYKLSQKGYS-COOH [TAT-BH4]
Time to death following injection (C57Bl/6J mice): 3 to 5 min | Appearance of mice the following day (CD1 mice; 2 mg i.p.): appeared normal | Percent Surviving (CD1 mice; 2 mg i.p.): 100% | Percent Surviving (CD1 mice; 5 mg i.p.): 75% | Appearance of surviving mice the following day (CD1 mice; 5 mg or 20 mg i.p., necropsy: distended and edematous bowel, small necrotic foci): piloerection and distended abdomens | Percent Surviving (CD1 mice; 20 mg i.p.): 25%

Ac-KKKRKV-β-A-(l) ^1-SNRELVVDFLSDKLSQKGDS-COOH [NLS-BH4i]
Effect on radiation-induced apoptosis, in words (CD3+ human PBMCs): Neither TAT-BH4i nor NLS-BH4i had any appreciable effect

Ac-KKKRKV-β-A-(l) ^1-SNRELVVDFLSYKLSQKGYS-COOH [NLS-BH4]
Uptake by PBMCs (fluorescence intensity, flow cytometry) [1]: less dependent on the presence of serum | Percent Surviving (CD1 mice; 2 mg i.p.): 100% | Percent Surviving (CD1 mice; 10 mg i.p.): 100% | Percent Surviving (CD1 mice; 30 mg i.p.): 100% | Tolerability of i.p. injections (CD1 mice; 2, 5, or 0 mg i.p., N = 3 mice per group): without any apparent ill effects | Radiation-induced lymphocyte apoptosis in vivo (pilot study) (male C57Bl/6 mice): significantly attenuated radiation-induced lymphocyte apoptosis
